Measurements reported in patent US20220187282A1, “CARDIOMYOCYTE PROLIFERATION” (The Council of the Queensland Institute of Medical Research, priority 2019, published 2022).
Read-outs that look alike come from different tables or passages of the source.

What was measured:
Type in all cases: biochemical
kinases [1] = target: kinases (Homo sapiens, UniProt O00506); conditions: STK25 (YSK1) FRET-Z-Lyte SP; Test Conc(μM):ATP Conc(μM) 1:75
kinases [2] = target: kinases (Homo sapiens, UniProt O14920); conditions: IKBKB (IKKbeta) FRET-Z-Lyte SP; Test Conc(μM):ATP Conc(μM) 1:5
kinases [3] = target: T1, kinases (Homo sapiens, UniProt O15530)
T1 sequence (O15530 1-556): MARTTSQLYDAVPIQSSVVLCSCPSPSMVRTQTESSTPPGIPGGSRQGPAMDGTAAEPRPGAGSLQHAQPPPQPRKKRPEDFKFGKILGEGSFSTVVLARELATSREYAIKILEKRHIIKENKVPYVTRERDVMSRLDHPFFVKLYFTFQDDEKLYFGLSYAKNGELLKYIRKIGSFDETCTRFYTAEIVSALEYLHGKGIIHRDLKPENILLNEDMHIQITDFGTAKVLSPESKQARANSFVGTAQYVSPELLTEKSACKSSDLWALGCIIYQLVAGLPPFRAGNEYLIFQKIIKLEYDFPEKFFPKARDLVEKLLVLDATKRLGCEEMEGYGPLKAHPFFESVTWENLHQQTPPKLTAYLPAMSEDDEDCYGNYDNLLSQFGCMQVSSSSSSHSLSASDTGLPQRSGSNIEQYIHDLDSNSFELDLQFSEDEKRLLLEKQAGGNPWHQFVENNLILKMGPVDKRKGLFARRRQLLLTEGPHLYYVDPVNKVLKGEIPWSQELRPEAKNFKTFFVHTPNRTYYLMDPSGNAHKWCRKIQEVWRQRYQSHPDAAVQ

kinases [4] = target: kinases (Homo sapiens, UniProt O75747); conditions: PIK3C2G FRET-Adapta SP; Test Conc(μM):ATP Conc(μM) 1:10
kinases [5] = target: kinases (Homo sapiens, UniProt O94806); conditions: PRKCN (PKD3) FRET-Z-Lyte SP; Test Conc(μM):ATP Conc(μM) 1:25
kinases [6] = target: kinases (Homo sapiens, UniProt P15735); conditions: PHKG2 FRET-Z-Lyte SP; Test Conc(μM):ATP Conc(μM) 1:10
kinases [7] = target: kinases (Homo sapiens, UniProt P23443); conditions: RPS6KB1 (p70S6K) Z-Lyte SP; Test Conc(μM):ATP Conc(μM) 1:10
kinases [8] = target: kinases (Homo sapiens, UniProt P29376); conditions: LTK (TYK1) FRET-Z-Lyte SP; Test Conc(μM):ATP Conc(μM) 1:75
kinases [9] = target: kinases (Homo sapiens, UniProt P36897); conditions: TGFBR1 (ALK5) FRET-Lantha SP; Test Conc(μM) 1
kinases [10] = target: kinases (Homo sapiens, UniProt P42681); conditions: TXK FRET-Z-Lyte SP; Test Conc(μM):ATP Conc(μM) 1:100
kinases [11] = target: kinases (Homo sapiens, UniProt P43405); conditions: SYK FRET-Z-Lyte SP; Test Conc(μM):ATP Conc(μM) 1:25
kinases [12] = target: kinases (Homo sapiens, UniProt P45985); conditions: MAP2K4 (MEK4) FRET-Lantha SP; Test Conc(μM) 1
kinases [13] = target: kinases (Homo sapiens, UniProt P51812); conditions: RPS6KA3 (RSK2) FRET-Z-Lyte SP; Test Conc(μM):ATP Conc(μM) 1:10
kinases [14] = target: kinases (Homo sapiens, UniProt Q04771); conditions: ACVR1 (ALK2) FRET-Lantha SP; Test Conc(μM) 1
kinases [15] = target: kinases (Homo sapiens, UniProt Q05655); conditions: PRKCD (PKC delta) Z-Lyte SP; Test Conc(μM):ATP Conc(μM) 1:25
kinases [16] = target: kinases (Homo sapiens, UniProt Q13555); conditions: CAMK2G FRET-Lantha SP; Test Conc(μM) 1
kinases [17] = target: kinases (Homo sapiens, UniProt Q15569); conditions: TESK1 FRET-Lantha SP; Test Conc(μM) 1
kinases [18] = target: kinases (Homo sapiens, UniProt Q16539)
kinases [19] = target: kinases (Homo sapiens, UniProt Q76MJ5); conditions: ERN2 FRET-Lantha SP; Test Conc(μM) 1
kinases [20] = target: kinases (Homo sapiens, UniProt Q8N752); conditions: CSNK1A1L FRET-Z-Lyte SP; Test Conc(μM):ATP Conc(μM) 1:5
kinases [21] = target: kinases (Homo sapiens, UniProt Q9BYP7); conditions: WNK3 FRET-Lantha SP; Test Conc(μM) 1
kinases [22] = target: kinases (Homo sapiens, UniProt Q9H093); conditions: NUAK2 FRET-Lantha SP; Test Conc(μM) 1
kinases [23] = target: kinases (Homo sapiens, UniProt Q9H792); conditions: PEAK1 FRET-Z-Lyte SP; Test Conc(μM):ATP Conc(μM) 1:50
[24] = PDK1 (Direct) FRET-Z-lyte SP, Test Conc(μM):ATP Conc(μM) 1:25
[25] = PDK1 Cascade FRET-Z-Lyte SP, Test Conc(μM):ATP Conc(μM) 1:100
[26] = MAPK14 (p38a) Direct Z-Lyte SP, Test Conc(μM):ATP Conc(μM) 1:500
[27] = MAPK14 (p38a)Cascade Z-Lyte SP, Test Conc(μM):ATP Conc(μM) 1:100

Chain of kinases (Homo sapiens, UniProt Q16539) (Q16539 whole entry): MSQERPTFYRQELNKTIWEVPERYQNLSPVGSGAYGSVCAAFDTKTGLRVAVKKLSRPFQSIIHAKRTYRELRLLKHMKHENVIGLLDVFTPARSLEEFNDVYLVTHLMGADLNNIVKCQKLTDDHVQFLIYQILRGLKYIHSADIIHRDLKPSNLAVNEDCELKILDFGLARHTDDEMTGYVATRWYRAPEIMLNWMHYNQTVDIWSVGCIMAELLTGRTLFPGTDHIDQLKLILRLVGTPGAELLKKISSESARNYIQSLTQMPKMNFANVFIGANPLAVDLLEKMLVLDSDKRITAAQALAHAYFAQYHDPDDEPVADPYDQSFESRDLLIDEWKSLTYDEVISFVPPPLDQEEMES
Chain of kinases (Homo sapiens, UniProt Q9H093) (Q9H093 whole entry): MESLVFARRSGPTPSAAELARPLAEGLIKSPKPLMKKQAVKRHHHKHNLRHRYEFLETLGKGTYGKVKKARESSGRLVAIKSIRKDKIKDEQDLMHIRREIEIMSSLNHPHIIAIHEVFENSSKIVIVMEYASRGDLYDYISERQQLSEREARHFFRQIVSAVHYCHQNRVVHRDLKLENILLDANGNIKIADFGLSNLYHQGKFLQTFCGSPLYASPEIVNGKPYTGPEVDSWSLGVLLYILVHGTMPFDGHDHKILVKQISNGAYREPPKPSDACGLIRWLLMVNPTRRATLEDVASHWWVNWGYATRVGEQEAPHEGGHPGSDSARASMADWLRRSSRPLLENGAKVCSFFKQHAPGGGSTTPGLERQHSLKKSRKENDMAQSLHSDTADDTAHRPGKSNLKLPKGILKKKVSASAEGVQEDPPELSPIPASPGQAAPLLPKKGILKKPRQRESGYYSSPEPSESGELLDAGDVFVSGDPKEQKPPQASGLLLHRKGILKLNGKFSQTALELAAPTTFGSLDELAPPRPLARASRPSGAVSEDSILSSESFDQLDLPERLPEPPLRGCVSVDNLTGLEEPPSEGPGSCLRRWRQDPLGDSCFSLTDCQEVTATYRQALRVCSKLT
Chain of kinases (Homo sapiens, UniProt P45985) (P45985 whole entry): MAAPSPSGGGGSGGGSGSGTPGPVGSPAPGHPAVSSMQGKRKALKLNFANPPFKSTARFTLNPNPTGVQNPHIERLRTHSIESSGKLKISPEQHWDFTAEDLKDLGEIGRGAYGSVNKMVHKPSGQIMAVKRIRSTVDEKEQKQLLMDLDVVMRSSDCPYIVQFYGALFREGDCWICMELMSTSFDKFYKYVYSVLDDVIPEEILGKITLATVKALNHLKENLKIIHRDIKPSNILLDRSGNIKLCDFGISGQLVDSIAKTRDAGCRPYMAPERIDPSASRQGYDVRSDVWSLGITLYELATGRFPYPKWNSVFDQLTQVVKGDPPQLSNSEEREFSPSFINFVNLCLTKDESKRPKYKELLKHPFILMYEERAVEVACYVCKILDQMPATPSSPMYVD
Chain of kinases (Homo sapiens, UniProt Q76MJ5) (Q76MJ5 35-926): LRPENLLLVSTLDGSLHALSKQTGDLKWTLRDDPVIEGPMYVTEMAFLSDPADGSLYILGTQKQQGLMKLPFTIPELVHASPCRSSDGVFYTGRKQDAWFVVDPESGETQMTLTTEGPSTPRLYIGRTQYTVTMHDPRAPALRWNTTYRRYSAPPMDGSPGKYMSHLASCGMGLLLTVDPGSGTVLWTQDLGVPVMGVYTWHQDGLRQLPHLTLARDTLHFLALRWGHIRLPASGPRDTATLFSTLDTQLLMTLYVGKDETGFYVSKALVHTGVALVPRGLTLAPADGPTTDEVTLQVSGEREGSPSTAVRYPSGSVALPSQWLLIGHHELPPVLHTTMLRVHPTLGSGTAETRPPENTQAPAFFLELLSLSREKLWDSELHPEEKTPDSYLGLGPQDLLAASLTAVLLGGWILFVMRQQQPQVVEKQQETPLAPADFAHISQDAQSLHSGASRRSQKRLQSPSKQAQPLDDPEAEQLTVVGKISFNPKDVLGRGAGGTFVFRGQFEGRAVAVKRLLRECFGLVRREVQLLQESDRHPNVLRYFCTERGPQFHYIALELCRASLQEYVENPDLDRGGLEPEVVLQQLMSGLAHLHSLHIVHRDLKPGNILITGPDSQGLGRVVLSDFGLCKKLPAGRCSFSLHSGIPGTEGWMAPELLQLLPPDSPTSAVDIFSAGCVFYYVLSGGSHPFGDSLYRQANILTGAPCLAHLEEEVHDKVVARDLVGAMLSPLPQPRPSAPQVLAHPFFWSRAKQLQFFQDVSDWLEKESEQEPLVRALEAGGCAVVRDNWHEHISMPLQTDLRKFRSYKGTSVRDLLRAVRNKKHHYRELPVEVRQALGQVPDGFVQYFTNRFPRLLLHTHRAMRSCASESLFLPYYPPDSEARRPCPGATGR
Chain of kinases (Homo sapiens, UniProt O14920) (O14920 whole entry): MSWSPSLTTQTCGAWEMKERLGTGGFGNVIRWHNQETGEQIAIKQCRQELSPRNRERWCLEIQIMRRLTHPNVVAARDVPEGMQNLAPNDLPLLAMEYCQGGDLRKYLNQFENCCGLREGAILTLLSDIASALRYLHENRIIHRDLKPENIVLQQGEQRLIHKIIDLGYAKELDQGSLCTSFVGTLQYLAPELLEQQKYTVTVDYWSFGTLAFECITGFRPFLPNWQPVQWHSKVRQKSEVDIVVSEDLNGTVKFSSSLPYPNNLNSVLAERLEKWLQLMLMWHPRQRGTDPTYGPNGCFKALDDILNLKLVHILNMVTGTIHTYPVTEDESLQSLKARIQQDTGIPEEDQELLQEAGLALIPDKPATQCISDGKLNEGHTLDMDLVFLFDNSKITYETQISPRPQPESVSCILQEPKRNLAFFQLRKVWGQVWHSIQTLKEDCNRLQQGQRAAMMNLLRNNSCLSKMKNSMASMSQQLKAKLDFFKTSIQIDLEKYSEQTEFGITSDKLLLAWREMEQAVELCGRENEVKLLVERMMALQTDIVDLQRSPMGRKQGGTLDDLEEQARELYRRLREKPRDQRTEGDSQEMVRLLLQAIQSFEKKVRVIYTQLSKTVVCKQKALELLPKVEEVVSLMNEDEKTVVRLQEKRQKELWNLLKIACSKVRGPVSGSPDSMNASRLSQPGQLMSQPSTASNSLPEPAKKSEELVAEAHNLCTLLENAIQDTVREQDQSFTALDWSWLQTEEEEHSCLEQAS
Chain of kinases (Homo sapiens, UniProt Q13555) (Q13555 whole entry): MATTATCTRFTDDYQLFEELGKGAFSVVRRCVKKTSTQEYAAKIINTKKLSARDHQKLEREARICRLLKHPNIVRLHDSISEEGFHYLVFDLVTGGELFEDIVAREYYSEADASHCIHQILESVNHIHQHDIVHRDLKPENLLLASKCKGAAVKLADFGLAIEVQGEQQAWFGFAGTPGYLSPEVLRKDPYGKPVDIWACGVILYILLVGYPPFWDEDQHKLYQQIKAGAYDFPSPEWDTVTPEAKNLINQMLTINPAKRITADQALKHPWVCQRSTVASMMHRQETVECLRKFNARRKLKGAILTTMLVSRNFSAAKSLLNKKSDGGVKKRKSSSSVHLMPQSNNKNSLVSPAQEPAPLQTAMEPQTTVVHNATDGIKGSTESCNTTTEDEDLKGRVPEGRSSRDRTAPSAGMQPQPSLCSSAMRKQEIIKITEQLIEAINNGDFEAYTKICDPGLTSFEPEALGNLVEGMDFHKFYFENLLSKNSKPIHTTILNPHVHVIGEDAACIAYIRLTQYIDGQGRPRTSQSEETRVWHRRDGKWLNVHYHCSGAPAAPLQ
Chain of kinases (Homo sapiens, UniProt O94806) (O94806 whole entry): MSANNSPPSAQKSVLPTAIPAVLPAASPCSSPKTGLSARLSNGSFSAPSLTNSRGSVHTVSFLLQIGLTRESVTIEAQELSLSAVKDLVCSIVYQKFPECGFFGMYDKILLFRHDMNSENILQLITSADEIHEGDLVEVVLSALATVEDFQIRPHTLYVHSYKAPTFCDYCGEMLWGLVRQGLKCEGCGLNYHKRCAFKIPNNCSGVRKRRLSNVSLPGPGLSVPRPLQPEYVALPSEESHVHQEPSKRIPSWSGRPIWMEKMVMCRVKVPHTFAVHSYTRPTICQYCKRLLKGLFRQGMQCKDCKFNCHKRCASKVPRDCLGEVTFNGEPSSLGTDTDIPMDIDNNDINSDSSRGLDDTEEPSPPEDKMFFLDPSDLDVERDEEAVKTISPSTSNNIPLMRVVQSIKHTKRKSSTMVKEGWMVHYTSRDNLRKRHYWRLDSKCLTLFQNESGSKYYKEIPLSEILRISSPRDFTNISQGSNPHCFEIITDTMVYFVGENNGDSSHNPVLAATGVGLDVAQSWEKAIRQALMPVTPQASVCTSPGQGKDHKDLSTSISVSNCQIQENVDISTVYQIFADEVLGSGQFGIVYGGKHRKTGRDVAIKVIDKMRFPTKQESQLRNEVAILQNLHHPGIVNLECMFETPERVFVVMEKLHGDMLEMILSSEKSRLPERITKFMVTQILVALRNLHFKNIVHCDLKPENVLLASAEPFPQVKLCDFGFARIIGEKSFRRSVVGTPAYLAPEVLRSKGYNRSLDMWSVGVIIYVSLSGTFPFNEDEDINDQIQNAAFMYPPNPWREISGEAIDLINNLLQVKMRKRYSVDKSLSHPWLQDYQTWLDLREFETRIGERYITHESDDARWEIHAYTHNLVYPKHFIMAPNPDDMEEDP
Chain of kinases (Homo sapiens, UniProt P23443) (P23443 whole entry): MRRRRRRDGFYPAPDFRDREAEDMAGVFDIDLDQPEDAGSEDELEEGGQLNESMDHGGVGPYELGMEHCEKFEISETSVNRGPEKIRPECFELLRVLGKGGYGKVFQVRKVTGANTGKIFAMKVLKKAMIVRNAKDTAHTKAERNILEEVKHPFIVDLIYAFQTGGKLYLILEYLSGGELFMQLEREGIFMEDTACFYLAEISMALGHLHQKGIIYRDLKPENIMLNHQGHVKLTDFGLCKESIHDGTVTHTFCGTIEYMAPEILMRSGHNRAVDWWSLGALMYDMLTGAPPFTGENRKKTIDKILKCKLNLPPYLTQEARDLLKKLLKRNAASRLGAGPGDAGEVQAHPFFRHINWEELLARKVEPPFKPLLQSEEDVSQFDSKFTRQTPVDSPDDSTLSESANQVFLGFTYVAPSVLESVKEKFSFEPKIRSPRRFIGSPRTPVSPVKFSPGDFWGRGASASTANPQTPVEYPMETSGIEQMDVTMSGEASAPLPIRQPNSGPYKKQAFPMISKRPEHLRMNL

Cc1ccc(NC(=O)c2ccnc(N3CCOCC3)c2)cc1Nc1ccnc(N2CC(C)OC(C)C2)n1 (centres unmarked) [compound 3]
Mean Inhib (%) (kinases [1]): 8.8% | Mean Inhib (%) (kinases [2]): 0.6% | Mean Inhib (%) (kinases [3]; [24]): 0.4% | Mean Inhib (%) (kinases [3]; [25]): 3.7% | Mean Inhib (%) (kinases [4]): 5.6% | Mean Inhib (%) (kinases [5]): 9.0% | Mean Inhib (%) (kinases [6]): −2.1% | Mean Inhib (%) (kinases [7]): 4.7% | Mean Inhib (%) (kinases [8]): −6.4% | Mean Inhib (%) (kinases [9]): 5.3% | Mean Inhib (%) (kinases [10]): 5.1% | Mean Inhib (%) (kinases [11]): −3.9% | Mean Inhib (%) (kinases [12]): −9.5% | Mean Inhib (%) (kinases [13]): 0.0% | Mean Inhib (%) (kinases [14]): 2.3% | Mean Inhib (%) (kinases [15]): 15.1% | Mean Inhib (%) (kinases [16]): −1.7% | Mean Inhib (%) (kinases [17]): −2.5% | Mean Inhib (%) (kinases [18]; [26]): 79.8% | Mean Inhib (%) (kinases [18]; [27]): 59.0% | Mean Inhib (%) (kinases [19]): −3.5% | Mean Inhib (%) (kinases [20]): 2.0% | Mean Inhib (%) (kinases [21]): 5.3% | Mean Inhib (%) (kinases [22]): 14.1% | Mean Inhib (%) (kinases [23]): 0.8%

Cc1cc(Oc2ccnc(Nc3ccc(S(N)(=O)=O)cc3)c2)c(-c2ccccn2)nc1C [compound 65]
Mean Inhib (%) (kinases [1]): 2.0% | Mean Inhib (%) (kinases [2]): −2.5% | Mean Inhib (%) (kinases [3]; [24]): 6.9% | Mean Inhib (%) (kinases [3]; [25]): 9.4% | Mean Inhib (%) (kinases [4]): 0.4% | Mean Inhib (%) (kinases [5]): 12.4% | Mean Inhib (%) (kinases [6]): 4.0% | Mean Inhib (%) (kinases [7]): 1.0% | Mean Inhib (%) (kinases [8]): −3.9% | Mean Inhib (%) (kinases [9]): 99.6% | Mean Inhib (%) (kinases [10]): 44.8% | Mean Inhib (%) (kinases [11]): 2.5% | Mean Inhib (%) (kinases [12]): 14.1% | Mean Inhib (%) (kinases [13]): −3.2% | Mean Inhib (%) (kinases [14]): 88.2% | Mean Inhib (%) (kinases [15]): 1.0% | Mean Inhib (%) (kinases [16]): 1.3% | Mean Inhib (%) (kinases [17]): 15.5% | Mean Inhib (%) (kinases [18]; [26]): 19.9% | Mean Inhib (%) (kinases [18]; [27]): 13.5% | Mean Inhib (%) (kinases [19]): 7.1% | Mean Inhib (%) (kinases [20]): 0.5% | Mean Inhib (%) (kinases [21]): −2.5% | Mean Inhib (%) (kinases [22]): 9.4% | Mean Inhib (%) (kinases [23]): 55.2%
